This is an account of results in US9061077B2 (Emory University, priority 2008, dated 2015).

Data set [1] can be described thus: Renal (plasma) clearance at steady-state infusion in rats. Format: in vivo. The conditions noted are these: steady-state co-infusion, average of three 10-min periods. The method, then:
Two male rats were anesthetized as described above and placed on a heated surgical table. Following tracheostomy, the left jugular vein was cannulated with two pieces of PE-50 tubing (one for infusion of radiopharmaceuticals and one to infuse normal saline (5.8 mL/h) to maintain hydration and additional anesthetic (5 mg/h) as necessary). The right carotid artery was cannulated for blood sampling and the bladder was catheterized by use of PE-50 tubing. The core temperature of each animal was continually monitored throughout the study using a rectal temperature probe. […] (3.7 MBq/mL [100 μCi/mL]) and ^131I-OIH (1.85 MBq/mL [50 μCi/mL]), were co-infused at a flow rate of 1.7 ml/h for 60 mins to establish steady-state blood levels. […] The blood samples were centrifuged for 15 mins and plasma samples were obtained. Plasma clearance (CI) was determined by utilizing the equation: CI (mL/min)=UV/P, where U is the urine radioactivity concentration, V is the urine volume excreted per minute and P is the plasma radioactivity concentration.

For the next data set, the system named is erythrocytes. As to the kind of experiment: Erythrocyte uptake, rat blood. The class given is in vitro ADME. The conditions noted are these: rats. On the procedure: (§1) Arterial blood samples were placed in capillary tubes and centrifuged to determine the hematocrit. Samples of the whole blood and packed cells (about 0.3 mL each) were pipetted into counting tubes, weighed, and counted. The percent uptake in the erythrocytes was calculated from the whole blood (counts/g) and packed cells (counts/g). Percent erythrocyte uptake=[(counts/g in erythrocytes×hematocrit)/counts/g in whole blood]. No correction was made for plasma trapped in the red blood cells sample. PPB and erythrocyte uptake were calculated in duplicate and the mean values reported.

Data set [2] has as its system red blood cells. Kind of data set: Red cell uptake in healthy volunteers. The class given is in vitro ADME, human. The settings on record: normal volunteers, individual values and mean.
A short description of data set [3]: In vitro stability in physiological phosphate buffer pH 7.4 (HPLC). The conditions noted are these: phosphate buffer pH 7.4, 24 h, listed as Na2[^99mTc(CO)3(NTA)].
Description: (§4) The buffered solution was evaluated by HPLC at 24 h to assess stability. […] (0.1 mL) were mixed with 0.1 M solutions of histidine and cysteine (0.9 mL) and incubated at 37° C.; aliquots were analyzed by HPLC at 1, 2 and 4 h to evaluate decomposition.
Data set [4] in a line: Cysteine and histidine challenge at 37 C (HPLC). The settings on record: 0.1 M cysteine and histidine, 4 h, listed as Na2[^99mTc(CO)3(NTA)].
Description: as §4
The conditions of data set [5]: cited from earlier work.
Data set [6] is described as follows: Comparison of renal tracer clearances in human subjects relative to PAH (FIG. 4).
Data set [7] in a line: Plasma clearance in healthy volunteers (single injection, two-compartment model). Format: in vivo, human. The conditions noted are these: normal volunteers (n=5), individual values and mean. From the text: Inclusion criteria required the absence of any history of kidney and bladder diseases and a normal review of systems. Pregnancy was excluded in females by means of a urine pregnancy test.

Data set [8] in a line: Safety in healthy volunteers (vital signs, CBC, chemistry panel, urinalysis). Format: in vivo, human. The settings on record: about 74 MBq, pre- and 24 hr post-injection. From the text:
Five healthy volunteers (3 male, 2 females; mean age±SD, 39.4±12.7 yrs; range 20-55 yrs) participated in this study. Inclusion criteria required the absence of any history of kidney and bladder diseases and a normal review of systems. Pregnancy was excluded in females by means of a urine pregnancy test.

Data set [9] concerns plasma protein. Kind of data set: Plasma protein binding in healthy volunteers. Format: in vitro ADME, human. The settings on record: normal volunteers, individual values and mean.
The conditions of data set [10]: background statement; cited from earlier work.
The conditions of data set [11]: humans, cited from earlier work.
For data set [12] the following is noted: normal volunteers; cited from earlier work.
The conditions of data set [13]: cited from earlier work. This is another data set of the same source.
The test system of data set [14] is plasma protein. The conditions noted are these: rats, cited from earlier work.
Data set [15] relates to red blood cells. The conditions noted are these: human blood, equilibrium conditions; cited from earlier work.
Data set [16] can be described thus: Biodistribution in Sprague-Dawley rats, percentage of injected dose (Example 6, Table 1). The class given is in vivo. The conditions noted are these: for Percentage of injected dose in bowel: combined stomach and intestine. The method, then:
Five samples for the 10 mins study, and six samples for the 60 mins study were used; the one sample for each time point was diluted to 100 ml, and three 1-ml portions of the resulting solution were used as standards. Each rat was anesthetized with ketamine-xylazine (2 mg/kg of body weight) injected intramuscularly, with additional supplemental anesthetic as needed. The bladder was catheterized by use of heat-flared PE-50 tubing (Becton, Dickinson and Co.) for urine collection.
A blood sample was obtained, and the heart, lungs, spleen, liver, intestines, stomach, and kidneys were removed. The whole liver was weighed, and random sections were obtained for counting. Blood, urine, whole organs, and tissue samples were placed in tubes, and each sample was weighed. […] The percentage of the dose in each tissue or organ was calculated by dividing the counts in each tissue or organ by the total injected counts, using reference counts from an accurately diluted sample of the original injection. The value given for the bowel represented combined stomach and intestine activities.

The test system of data set [17] is plasma protein. Kind of data set: Plasma protein binding by ultrafiltration, rat plasma. The settings on record: rats. Format: in vitro ADME. On the procedure:
as §1

The nature of data set [18]: Biodistribution in rats with renal pedicle ligation (renal failure model), Group B. The class given is in vivo, Sprague-Dawley rats. The settings on record: 60 min. The method, then:
(§2) Rats in both groups were anesthetized with ketamine-xylazine (2 mg/kg of body weight) injected intramuscularly, with additional supplemental anesthetic as needed. In the first group of ten normal rats (Group A), the bladder was catheterized by use of heat-flared PE-50 tubing. In the second group of six rats (Group B), the abdomen was open by a midline incision and both renal pedicles were ligated to produce a model of renal failure; thus no urine was collected.
(§3) One additional aliquot (0.2 mL) for each time point was diluted to 100 mL, and three 1-mL portions of the resulting solution were used as standards.
The 6 Group B rats were sacrificed 60 mins after injection. Selected organs, blood, and all of the small and large intestines were collected and counted as described above. The percentage injected dose reported for the bowel was based on the combined counts in the small and large intestines.

A short description of data set [19]: Biodistribution in normal rats, Group A (Example 7, Table 3). Format: in vivo, Sprague-Dawley rats. The conditions noted are these: for Percent injected dose in bowel: duodenum and colon samples; for Percent injected dose in blood: normal rats Group A, n=5. On the procedure:
as §2, §3
In Group A, 5 animals were sacrificed at 10 min, and 5 animals were sacrificed at 60 mins after injection. A blood sample was obtained, and the kidneys, heart, lungs, spleen, whole stomach and sections of the duodenum and ascending colon were removed and placed in counting vials. The whole liver was weighed, and random sections were obtained for counting. Samples of blood and urine were also placed in counting vials and weighed. […] The percentage of the dose in each tissue or organ was calculated by dividing the counts in each tissue or organ by the total injected counts. The percentage injected dose reported for the bowel was based on the combined counts of the duodenum and colon samples.

For data set [20] the following is noted: normal volunteers.
The nature of data set [21]: Renal extraction fraction in rats (arterial vs renal venous plasma). Format: in vivo.
Description: The extraction fraction (EF) was measured at the conclusion of the clearance measurements by obtaining a left renal venous blood sample (0.5 mL) followed immediately by a carotid artery sample (3 mL). Both blood samples were centrifuged immediately after collection to obtain plasma samples. EF was calculated by measuring the difference between the arterial and venous plasma sample: EF=(arterial concentration−venous concentration)/arterial concentration.

“And” between values parts separate entries of the source, which are not always exact repeats. Equal values may be shown once. Read-outs that look alike come from different tables or passages of the source.

The molecule “technetium-99m tricarbonyl-nitrilotriacetic acid [^99mTc(CO)3(NTA)]” registered a Plasma clearance in data set [1] of 3.08 mL/min/100 g. Further, the “Erythrocyte (red cell) uptake” value with erythrocytes (listed as Na2[^99mTc(CO)3(NTA)]) is 7±2% and 7%. In addition, the “RBC (red cell uptake)” value with red blood cells [2] was 12%; with red blood cells [2] (listed as 99mTc-NTA), 6% and 15% and 20% and 16% and 4%; with red blood cells [2] (listed as 99mTc-NTA, mean), 12%. Also, the “Stability at physiological pH” value in data set [3] is “stable for 24 h”. Moreover, the “Stability to cysteine and histidine challenge” value in data set [4] is given as “no degradation”. Further, the “pKa of the pendant carboxylic acid” value in data set [5] is “approximately 3”. Besides, the “Clearance relative to PAH (PAH assigned 100%)” value in data set [6] is “about 90%”. For the same molecule, the “Plasma clearance, Cl” value in [7] was 480 mL/min; in [7] (listed as 99mTc-NTA), 477.1 mL/min and 607.9 mL/min and 388.5 mL/min and 434.2 mL/min and 491.8 mL/min; in data set [7] (listed as 99mTc-NTA, mean) it was 479.90 mL/min. Also, the “Toxicity (blood pressure, heart rate, temperature, CBC, chemistry panel, urine analysis)” value in data set [8] was “no evidence of any toxicity”. For the same molecule, the “PPB (plasma protein binding)” value was 45% in the data set with plasma protein [9]; 39% and 40% and 50% and 42% and 53% with plasma protein [9] (listed as 99mTc-NTA).

Consider `O=C([O-])CN(CCN(CC(=O)[O-])CC(=O)[O-])CCN(CC(=O)[O-])CC(=O)[O-].[99Tc+4]` [^99mTc-DTPA], for which the “Extraction fraction (EF)” value in [10] was 20%.

With ^99mTc-DD-ethylene dicysteine, the “Clearance as percent of that of PAH” value in [11] (literature) is recorded as 60-65%.

On to `O=C([O-])CN=C([O-])CN=C([O-])CN=C([O-])C[S-].[O-2].[Tc+4]` [^99mTc-MAG3, technetium-99m mercaptoacetyltriglycine], for which the “Clearance as multiple of the clearance of 99mTc-DTPA” value in data set [11] is reported as 2-2.5 times. In addition, the “Injected dose transported into the small intestine via the hepatobiliary system” value in data set [12] was 0.5-1.0%. Further, the Hepatobiliary clearance was 11.7% in data set [13] (fasting rats) and 6.6% in data set [13] (rats with free access to food). The Protein binding in the data set on plasma protein [14] (before infusion) is 78%; in the data set with plasma protein [14] (following PAH infusion), 44%; in the data set on plasma protein [14] (following ammonium chloride infusion) it was 63%; in the data set on plasma protein [14] (following mannitol infusion), 42%; in the data set with plasma protein [14] (following sodium bicarbonate infusion), 65%. Further, the “Extraction fraction (EF)” value in data set [10] was 50-60%. For the same molecule, the “Clearance relative to PAH (PAH assigned 100%)” value in [6] was “substantially less than that of PAH”; in data set [6] (listed as 99mTcMAG3) it was “substantially less”.

Molecule `O=C(O)CNC(=O)c1ccccc1[131I]` [^131I-OIH, ^131I-ortho-iodohippurate] had a Plasma clearance in data set [1] of 2.96 mL/min/100 g. Further, the “Erythrocyte (red cell) uptake” value with erythrocytes was 35±1% and 35%. Also, the “RBC (red cell uptake)” value in the data set with red blood cells [2] was 20% and 15% and 21% and 25% and 24% and 14%. Further, the “Fraction bound to or inside red blood cells” value in the data set with red blood cells [15] was 15-20%. Also, in [16] (10 min), the “Percentage of injected dose in heart” value turned out to be 0.2 ± 0.1%, the “Percentage of injected dose in kidney” value came to 5.6 ± 0.6%, the “Percentage of injected dose in liver” value is reported as 4.0 ± 0.7% and the “Percentage of injected dose in lung” value amounted to 0.5 ± 0.2%. Also, in data set [16] (10 min), the “Percentage of injected dose in urine” value worked out at 53.2 ± 7.2% and the “Percentage of injected dose in bowel” value turned out to be 2.5 ± 0.5%. Also, in [16] (10 min post-injection, n=5), the “Percentage of injected dose in blood” value came to 5.6 ± 1.0%. For the same molecule, in data set [16] (60 min), the “Percentage of injected dose in heart” value was found to be 0.0 ± 0.0%, the “Percentage of injected dose in kidney” value came to 0.5 ± 0.0%, the “Percentage of injected dose in liver” value came to 0.7 ± 0.2% and the “Percentage of injected dose in lung” value was 0.1 ± 0.1%. In [16] (60 min), the “Percentage of injected dose in urine” value is recorded as 91.4 ± 3.7% and the “Percentage of injected dose in bowel” value was 1.7 ± 0.7%. Besides, in data set [16] (60 min post-injection, n=6), the “Percentage of injected dose in blood” value is 0.5 ± 0.0%. Besides, the Plasma protein binding with plasma protein [17] was determined as 44±10%. For the same molecule, in data set [6], the “Clearance relative to PAH (PAH assigned 100%)” value is given as “about 90%”. In data set [7], the “Plasma clearance, Cl” value is 482 mL/min and 423.4 mL/min and 433.4 mL/min and 481.94 mL/min and 497.49 mL/min and 442 mL/min and 613.4 mL/min. For the same molecule, in [18] (Group B), the “Percent injected dose in kidney” value is given as 0.8 ± 0.2% and the “Percent injected dose in liver” value is 9.7 ± 1.7%. Moreover, the “Percent injected dose in bowel” value in [18] (Group B, small and large intestines) is 14.6% and 14.6 ± 2.8%. Moreover, the “Percent injected dose in blood” value in data set [18] (renal pedicle ligation Group B, n=6) is 15.1% and 15.1 ± 0.9%. For the same molecule, in data set [19] (Group A, 10 min), the “Percent injected dose in kidney” value is given as 5.6 ± 0.6%, the “Percent injected dose in liver” value is reported as 4.0 ± 0.7%, the “Percent injected dose in urine” value is given as 53.2 ± 7.2% and the “Percent injected dose in bowel” value turned out to be 2.2 ± 0.4%. In [19] (Group A, 60 min), the “Mean total injected activity present in heart, lungs, spleen, blood and liver” value is 1.1%; the “Percent injected dose in kidney” value stood at 0.5 ± 0.0%; the “Percent injected dose in liver” value is recorded as 0.6 ± 0.3%; the “Percent injected dose in urine” value amounted to 91.4 ± 3.7%. Besides, the “Percent injected dose in bowel” value in [19] (Group A, 60 min) was 1.0 ± 0.5%. The “Percent injected dose in blood” value in data set [19] (10 min) was 5.6 ± 1.0%. In addition, the “Percent injected dose in blood” value in [19] (60 min) stood at 0.5 ± 0.0%. Also, the “Urine 30 min (percent dose excreted)” value in data set [20] (30 minutes) was 80% and 74% and 78% and 55% and 64%. Further, the “Urine (percent dose in urine)” value in [20] (collection time not given (voids at 30, 90, 180 min)) was 98% and 93% and 96% and 83% and 81%. Also, the Extraction fraction in [21] was 67.9±6.1% and 67.9%. In the data set with plasma protein [9], the “PPB (plasma protein binding)” value was 77% and 74% and 79%.
